Assay results taken from article PMC6238539, “Discovery of a cofactor-independent inhibitor of Mycobacterium tuberculosis InhA” (Life Science Alliance, 2018).
In brackets after ≈: the same amount, converted by molar mass. Several values for one entry are separate records, joined by “and”; a condition that tells them apart may be missing. Equal entries are not always repeated. Where two headings read alike, the source gives them in different places.

Tests used:
M. tuberculosis H37Rv = type: cell-based, Mycobacterium tuberculosis
[1] = test system: M. tuberculosis inhA promoter and coding sequence mutants; type: cell-based, Mycobacterium tuberculosis; details: read-out: Liquid IC90
[2] = test system: M. tuberculosis drug-resistant clinical isolates; test: microbe, parasite or virus in culture; type: cell-based; details: Mycobacterium tuberculosis
[3] = test system: M. tuberculosis H37Rv-resistant mutants; type: cell-based, Mycobacterium tuberculosis; details: read-out: Liquid media IC90
[4] = test system: M. tuberculosis inhA promoter and coding sequence mutants; details: cited from earlier work
M. tuberculosis = details: cited from earlier work
[5] = strains of Table 3, ref McNeil et al, 2017

Compound: N#Cc1ccc(Oc2ccc3c(c2)COB3O)c(/C=N/O)c1 [AN3438]
- frequency of resistance (M. tuberculosis H37Rv): 6.5 × 10^−7

Compound: CCS(=O)(=O)N1N=Cc2ccc(Oc3ccc(C(F)(F)F)cc3/C=N/O)cc2B1O [AN12855]
- frequency of resistance (M. tuberculosis H37Rv): 6.5 × 10^−7
- IC90 [1]: 60 nM
- MIC ([2]; H37RV, read-out: MIC): 0.13 µg/mL (≈ 0.295 µM)
- MIC ([2]; read-out: MIC): 0.25 µg/mL (≈ 0.567 µM)

Compound: NNC(=O)c1ccncc1 [INH, isoniazid]
- IC90 [3]: 300 nM and 100 nM and 400 nM
- MIC ([2]; H37RV, read-out: MIC): < 0.06 µg/mL
- IC90 ([4]; strain H37Rv (WT), ref McNeil et al (2017), read-out: Liquid IC90): 100 nM
- Liquid IC90 (fold shift versus WT) ([4]; strain LP-0532543-RM1, InhA S94A, ref McNeil et al (2017)): 2×
- Liquid IC90 (fold shift versus WT) ([4]; strain LP-0532543-RM2, InhA D148E, ref McNeil et al (2017)): 1×
- Liquid IC90 (fold shift versus WT) ([4]; strain LP-0532543-RM3, InhA A206E, ref McNeil et al (2017)): 1×
- Liquid IC90 (fold shift versus WT) ([4]; strain LP-0532543-RM4, InhA M161L, ref McNeil et al (2017)): 1×
- Liquid IC90 (fold shift versus WT) ([4]; strain LP-0532543-RM6, InhA M103T, ref McNeil et al (2017)): 1×
- Liquid IC90 (fold shift versus WT) ([4]; strain LP-0532543-RM7, InhA G205A, ref McNeil et al (2017)): 1×
- Liquid IC90 (fold shift versus WT) ([4]; strain LP-0532543-RM9, InhA I202F, ref McNeil et al (2017)): 1×
- Liquid IC90 (fold shift versus WT) ([4]; strain LP-0532543-RM11, InhA G205S, ref McNeil et al (2017)): 1×
- Liquid IC90 (fold shift versus WT) ([4]; strain LP-0532543-RM13, InhA F41L, ref McNeil et al (2017)): 1×
- Liquid IC90 (fold shift versus WT) ([4]; strain LP-0532543-RM14, InhA G212D, ref McNeil et al (2017)): 1×
- Liquid IC90 (fold shift versus WT) ([4]; strain LP-0532543-RM16, InhA I215S, ref McNeil et al (2017)): 1×
- Liquid IC90 (fold shift versus WT) ([4]; strain LP-0532543-RM18, InhA S19W, ref McNeil et al (2017)): 1×
- Liquid IC90 (fold shift versus WT) ([4]; strain LP-0532543-RM19, InhA I47L, ref McNeil et al (2017)): 1×
- Liquid IC90 (fold shift versus WT) ([4]; strain LP-0532543-RM28, InhA I21M, ref McNeil et al (2017)): 1×
- Liquid IC90 (fold shift versus WT) ([4]; strain LP-0532543-RM30, fabG1inhA promoter c-15t, ref McNeil et al (2017)): 5×
- Liquid IC90 (fold shift versus WT) ([4]; strain LP-0532543-RM34, InhA I21V, ref McNeil et al (2017)): 2×
- Liquid IC90 (fold shift versus WT) ([4]; strain LP-0532543-RM37, InhA L269R, ref McNeil et al (2017)): 1×
- Liquid IC90 (fold shift versus WT) ([4]; strain LP-0532543-RM41, InhA R195G, ref McNeil et al (2017)): 2×
- Liquid IC90 (fold shift versus WT) ([4]; strain LP-0532543-RM301, promoter c-15t, InhA N159K, ref McNeil et al (2017)): 3×
- Liquid IC90 (fold shift versus WT) ([4]; strain LP-0532543-RM304, promoter c-15t, InhA T162M, ref McNeil et al (2017)): 4×
- Liquid IC90 (fold shift versus WT) ([4]; strain LP-0532543-RM311, promoter c-15t, InhA M161V, ref McNeil et al (2017)): 5×
- Liquid IC90 (fold shift versus WT) ([4]; strain LP-0532543-RM313, promoter c-15t, InhA G205D, ref McNeil et al (2017)): 2×
- Liquid IC90 (fold shift versus WT) ([4]; strain LP-0532543-RM314, promoter c-15t, InhA I47M, ref McNeil et al (2017)): 5×
- Liquid IC90 (fold shift versus WT) ([4]; strain LP-0532543-RM318, promoter c-15t, InhA M199L, ref McNeil et al (2017)): 4×
- Liquid IC90 (fold shift versus WT) ([4]; strain LP-0532543-RM320, promoter c-15t, InhA G208D, ref McNeil et al (2017)): 4×
- Liquid IC90 (fold shift versus WT) ([4]; strain LP-0571426-RM24, InhA I194T, ref McNeil et al (2017)): 3×
- frequency of resistance (M. tuberculosis): 1 × 10^−5

Compound: CC1(C)CCC(Cc2cc(O)c(-c3ccccc3)c(=O)[nH]2)CC1 [NITD-916]
- resistance of inhA / fabG1inhA promoter mutant strains [4, 5]: resistant
- frequency of resistance (M. tuberculosis; ref Manjunatha et al, 2015, Martínez-Hoyos et al, 2016): 1 × 10^−8

Compound: CO[C@H]1/C=C/O[C@@]2(C)Oc3c(C)c(O)c4c(O)c(c(/C=N/N5CCN(C)CC5)c(O)c4c3C2=O)NC(=O)/C(C)=C\C=C\[C@H](C)[C@H](O)[C@@H](C)[C@@H](O)[C@@H](C)[C@H](OC(C)=O)[C@@H]1C [RIF, rifampicin]
- MIC [2]: > 16 µg/mL
- MIC ([2]; H37RV): < 0.06 µg/mL

Compound: Oc1cc(Cl)ccc1Oc1ccc(Cl)cc1Cl [triclosan]
- cross-resistance of the mutants [4, 5]: None of the mutants demonstrated cross-resistance
